Laboratory results published in patent US3975524A, “3-Piperazino-isoquinolines and salts thereof” (Boehringer Ingelheim GmbH, priority 1974, dated 1976).
pIC50: −log10 of the molar value. Where two headings read alike, the source gives them in different places.

How the values were obtained:
thrombocyte aggregation [1] = assay: inhibition of thrombocyte aggregation induced by collagen; assay type: cell-based, human; settings: platelet-rich plasma
Excerpt: (§1) 2. The inhibiting action upon thrombocyte aggregation was ascertained by the method of Born and Cross, J. Physiol. 170, 397 (1964), in the platelet-rich plasma of healthy human test subjects, by photometrically ascertaining and registering the rate of decrease of the optical density after addition of (a) adenosine diphosphate (ADP). The angle of inclination of the density curve is a measure of the rate of aggregration (V max.). The point on the curve which corresponded to the greatest light-permeability was used for calculation of the optical density (o.D.).
(b) Aggregration with collagen
The procedure is the same as described under (a). To provoke aggregation commercial collagen was used, containing 1 mgm of collagen fibrils per 1 ml. To provoke maximum aggregation, about 0.01 ml of this collagen solution was added to 1 ml of platelet-rich plasma. Previously, the plasma was incubated at 37°C with varying quantities of test compound for 10 minutes each: […]

bleeding time = assay: prolonging effect upon the bleeding time, method of Duke; assay type: in vivo; settings: 10 mgm/kg per os, mice, vs untreated animals
Method: 3. The prolonging effect upon the bleeding time was ascertained by the method of Duke, J. Amer. Med. Assoc. 15, 1185 (1910). 10 mgm/kg of the test compound were given per os to non-anesthetized mice. After 1 or 3 hours, about 0.5 mm was cut off from the tail of each animal, and the exuded blood was carefully soaked up with filter paper at intervals of 30 seconds. The number of drops of blood so obtained was used as a measure for the bleeding time compared to untreated animals (5 animals/test).

platelet stickiness = assay: retention test according to Morris (inhibition of platelet stickiness on glass beads); assay type: cell-based; settings: human citrate-blood, 10 min at 37°C
Method: 1. The inhibiting effect upon the platelet stickiness was determined by means of the so-called retention test according to Morris [see E. Deutsch et al, 1. Internationales Symposium uber Stoffwechsel und Membranpermeabilitat von Erythrocyten und Thrombocyten, Vienna, Austria (1969); Georg Thieme Verlag, Stuttgart, Germany]. 1 ml of human citrate-blood is pipetted into each of a number of small test tubes, and the test compound is added to various final concentrations. The tubes are incubated for 10 minutes at 37°C. 1 gm of glass beads (glass beads for gas-chromatography) is added to half of the tubes. Finally, the closed tubes are attached to a vertical wheel and rotated for 1 minute. By this means good contact is obtained between the glass beads and the blood. The tubes are then allowed to stand at room temperature for another hour, after which time a satisfactory sedimentation of erythrocytes has taken place. 0.01 ml of the supernatant plasma is removed, diluted to 1:8,000 with celloscope solution, and the platelet count is read in the celloscope.

thrombocyte aggregation [2] = assay: inhibition of thrombocyte aggregation induced by adenosine diphosphate (ADP), Born and Cross; assay type: cell-based; settings: 10 min, platelet-rich human plasma, 10 min at 37°C, read-out: ED50 (concentration which reduces the maximum light-permeability after addition of ADP by 50%)
Excerpt: as §1
The ADP-doses were held to a minimum, but still sufficiently large to result in an irreversible aggregation. Prior to addition of ADP, each plasma sample was incubated for 10 minutes at 37°C with various amounts of the test compound. From the data thus obtained, the median effective amount of test compound (ED50), i.e. the concentration which reduces the maximum light-permeability in platelet-rich plasma after addition of ADP by 50%, was calculated.

[3] = acute toxicity in white mice after oral or intravenous administration; assay type: in vivo; settings: observation time 14 days; for LD50 at 336 h: mouse, in vivo; for animals died: 250 mgm/kg p.o.
Method: 4. The acute toxicities of the compounds were determined in white mice (observation time: 14 days) after oral or intravenous adminstration. The LD50 was calculated from the percentage of animals which died after different doses within the observation time [see Finney et al in Probit Analysis, third Edition, Cambridge (1971)].

[4] = po, read-out: Toxicity (p.o. bound)

| SMILES | % inhibition of O.D. (thrombocyte aggregation [1]; 10^^-4 mol/liter) [%] | % inhibition of Vmax (thrombocyte aggregation [1]; 10^^-4 mol/liter) [%] | % inhibition of O.D. (thrombocyte aggregation [1]; 10^^-5 mol/liter) [%] | % inhibition of Vmax (thrombocyte aggregation [1]; 10^^-5 mol/liter) [%] | % Prolongation of bleeding time (bleeding time; 1 hour after application) [%] | Inhibition in % (platelet stickiness) (platelet stickiness; 3×10^^-5 mol/liter) [%] | % inhibition of O.D. (thrombocyte aggregation [1]; 3.10^^-5 mol/liter) [%] | % inhibition of Vmax (thrombocyte aggregation [1]; 3.10^^-5 mol/liter) [%] | % Prolongation of bleeding time (bleeding time; 3 hours after application) [%] | pIC50 (thrombocyte aggregation [2]) | LD50 at 336 h ([3]; iv, read-out: LD50) [mg/kg] | LD50 at 336 h ([3]; po, read-out: LD50) [mg/kg] | Inhibition in % (platelet stickiness) (platelet stickiness; 10^^-4 mol/liter) [%] | animals died [3] | LD50 at 336 h [3, 4] [mg/kg] | Inhibition in % (platelet stickiness) (platelet stickiness; 5×10^^-5 mol/liter) [%] |
| --- | --- | --- | --- | --- | --- | --- | --- | --- | --- | --- | --- | --- | --- | --- | --- | --- |
| c1ccc2c(N3CCSCC3)nc(N3CCNCC3)cc2c1 [A, 1-thiomorpholino-3-piperazino-isoquinoline] | 100 | 100 | 62 | 51 | 90 | 18 |  |  |  |  |  |  |  |  |  |  |
| [O-][S+]1CCN(c2nc(N3CCNCC3)cc3ccccc23)CC1 [B, 1-(1-oxido-thiomorpholino)-3-piperazino-isoquinoline] |  |  | 80 | 75 | 83 | 33 | 96 | 96 | 16 | 4.52 | 123 | 940 |  |  |  |  |
| [O-][S+]1CCN(c2nc(N3CCNCC3)cc3c(Cl)cccc23)CC1 [Compound E, 1-(1-oxido-thiomorpholino)-3-piperazino-5-chloro-isoquinoline] |  |  | 100 | 100 | 146 |  |  |  |  |  |  |  | 92 | 0 out of 5 | > 250 |  |
| CN1CCN(c2cc3ccccc3c(N3CCOCC3)n2)CC1 [C, 1-morpholino-3-(N'-methyl-piperazino)-isoquinoline] |  |  |  |  | 85 |  |  |  |  |  |  |  |  | 2 out of 5 | > 250 | 50 |
| COc1cccc2c(N3CC[S+]([O-])CC3)nc(N3CCNCC3)cc12 [F, 1-(1-oxido-thiomorpholino)-3-piperazino-5-methoxy-isoquinoline] |  |  | 100 | 100 | 117 |  |  |  |  |  |  |  | 70 |  |  |  |
| Cc1cccc2c(N3CC[S+]([O-])CC3)nc(N3CCNCC3)cc12 [D, 1-(1-oxido-thiomorpholino)-3-piperazino-5-methyl-isoquinoline] |  |  |  |  | 78 |  | 100 | 100 |  |  |  |  | 86 | 0 out of 5 | > 250 |  |
